Our source for the TGI and GI50 values is PubChem BioAssay (NCI).

What all share (experiment): inhibition of tumour cell growth, NCI panel, 48 h
Test [1] concerns 786-0 renal.
Test [2] has as its system UACC-257 melanoma.
Test [3] has as its system NCI-H460 lung.
The subject of test [4] is HT29 colon.
Test [5] deals with T-47D breast.
Test [6] deals with SK-MEL-28 melanoma.
For test [7], the system named is SF-539 CNS.
The subject of test [8] is UACC-62 melanoma.
Test [9] concerns A498 renal.
In test [10] the test system is RPMI-8226 leukemia.

The structures appear in SMILES notation. Values joined by “and” are separate entries in the source; they are usually repeats but may differ in a detail not shown here. Identical values can stand only once.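 Five concentrations, 48 hours, 96-well plates. At the GI50, growth is halved. TGI denotes the concentration required for complete inhibition of growth.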

For `N#Cc1ccccc1NC(=O)C(=O)c1c(O)c2ccccc2oc1=O`, the TGI in test [1], in test [2], in test [3], in [4], in test [5] and in [6] was > 100 µM throughout. The TGI in test [7], in test [8], in test [9] and in test [10] was > 100 µM each time.
For the compound `C[C@H](Nc1ncnc2nc[nH]c12)c1cc2ccc(F)cc2nc1-c1ccccn1`, the GI50 in [1] was 14.3 µM; in test [2], > 100 µM; in test [3] it was > 100 µM; in test [4], > 100 µM; in [5], 17.2 µM; in test [6] it was > 100 µM. Further, the GI50 in test [7] was > 94.7 µM; in test [8], 9.29 µM; in [9], 1.02 µM; in test [10], > 100 µM. Further, the TGI is > 100 µM in test [1]; > 100 µM in test [2]; > 100 µM in test [3]; > 100 µM in test [4]; 99.5 µM in test [5]; > 100 µM in test [6]. Also, the TGI in test [7] is > 100 µM; in test [8], > 100 µM; in test [9], 10.7 µM; in [10], > 100 µM.
On to `Nc1nc2c(s1)CCc1c-2c(Br)n(Cc2ccccc2)c1Br`, for which the GI50 is 7.11 µM in test [1]; 12.1 µM in test [2]; 21.3 µM in [3]; 10.9 µM in [4]; 3.17 µM in test [5]; 12.9 µM in test [6]. Besides, the values for the GI50 in [7], in test [8] and in test [9] were 15.4 µM, 10.4 µM and 17.3 µM, respectively. In addition, the TGI in [1] was 22.9 µM; in [2], 25.6 µM; in [3], 52.9 µM; in test [4] it was 27.7 µM; in [5], 10.6 µM; in test [6] it was 26.2 µM. In addition, the figures for the TGI in test [7], in [8] and in test [9] were 29.2 µM, 24.7 µM and 33.8 µM, respectively.
As to `Nc1nc(OCc2cc(Br)cs2)c2[nH]cnc2n1`, the GI50 was 22.2 µM in test [1]; 25 µM in test [3]; 28.9 µM in test [4]; 17.5 µM in test [5]; 29.3 µM in test [6]; 18.2 µM in test [7]. The GI50 in test [8] was 16.3 µM; in [9], 11 µM; in test [10] it was 19.1 µM. Moreover, the TGI in test [1] was > 100 µM; in [3] it was > 100 µM; in [4] it was > 100 µM; in [5], 87.5 µM; in test [6], > 100 µM; in [7] it was 62.6 µM. For the same compound, the TGI in test [8] was 59.7 µM; in test [9] it was 48.3 µM; in [10] it was > 100 µM.
As for `C=C(C)[C@@H]1CC[C@]2(C(=O)O)CC[C@]3(C)[C@H](CC[C@@H]4[C@@]5(C)C[C@@H](CC#Cc6ccc(C(F)(F)F)cc6)[C@H](O)C(C)(C)[C@@H]5CC[C@]43C)[C@@H]12`, the GI50 in test [1] is 3.2 µM; in test [3], 3.38 µM; in test [4], 3.01 µM; in test [5] it was 4.75 µM; in [9], 3.16 µM; in [10], 4.01 µM. Also, the TGI in test [1] was 21.9 µM; in test [3], > 100 µM; in test [4], > 100 µM; in test [5], > 100 µM; in [9] it was > 100 µM; in test [10], > 100 µM.
Regarding `CC1=CC(=C(c2ccc(N)cc2)c2ccc(N)cc2)C=CC1=N`, the GI50 in test [1] was 1.64 µM and 8.26 µM; in test [2], 2.4 µM and 3.1 µM; in test [3] it was 0.838 µM; in test [4] it was 0.558 µM and 3.08 µM; in [5], 0.27 µM and 1.31 µM; in test [6], 0.789 µM and 4.57 µM. Further, the GI50 in [7] was 0.632 µM and 2.32 µM; in test [8] it was 1.3 µM and 3.09 µM; in test [9] it was 2.2 µM. Also, the TGI is 6.53 µM and 26.1 µM and 31.7 µM in [1]; 14.4 µM and 19 µM and 10.7 µM in [2]; 7.3 µM and 28.9 µM and 15.8 µM in test [3]; 10.7 µM and 29.9 µM and 11.3 µM in test [4]; 2.73 µM and 11.8 µM and 8.81 µM in [5]; 7.89 µM and 36.8 µM and 19.6 µM in [6]. Further, the TGI in test [7] was 8.36 µM and 9.18 µM and 16.9 µM; in [8], 5.53 µM and 18.3 µM and 16.1 µM; in [9] it was > 27.4 µM and > 100 µM and 32.2 µM.
Take `COc1ccc2c(c1)[n+](=O)c(C(=O)c1ccco1)c(C(F)(F)F)n2[O-]`: the GI50 in test [1] was 3.83 µM; in test [2], 1.44 µM; in [3] it was 1.72 µM; in test [4], 4.59 µM; in test [6], 12.3 µM; in [7] it was 3.41 µM. In addition, the GI50 in test [8] is 1.75 µM; in test [9], 3.98 µM; in test [10], 1.62 µM. For the same compound, the TGI is 54.1 µM in test [1]; 4.83 µM in [2]; 15.6 µM in [3]; > 100 µM in [4]; 94.9 µM in test [6]; 15.6 µM in test [7]. Moreover, the TGI in [8] turned out to be 4.91 µM; in test [9], 16 µM; in test [10] it was 22.1 µM.
Consider `Clc1ccc2c(c1)N(CCCN1CCCC1)c1ccccc1S2`, for which the GI50 is 5.38 µM in test [1]; 11.4 µM in test [2]; 15.2 µM in [3]; 3.71 µM in test [4]; 12.4 µM in test [5]; 6.6 µM in [6]. Further, the GI50 in test [8] is 10.2 µM; in test [9], 2.2 µM; in test [10], 7.4 µM. In addition, the TGI in test [1] is 19.3 µM; in test [2], 23.8 µM; in test [3] it was 35.4 µM; in test [4] it was 12.9 µM; in [5] it was 28.5 µM; in test [6] it was 21.4 µM. Moreover, the TGI in test [8] amounted to 25.2 µM; in [9] it was 10.2 µM; in test [10] it was 24.3 µM.
In the case of `CNCc1cc(OC)ccc1-c1ccc(OC)c(OC)c1OC`, the TGI in test [1], in [2], in [3], in test [4], in test [6] and in test [7] was > 100 µM each time. The TGI in [8], in [9] and in test [10] was > 100 µM throughout.
`Cc1ccc(-c2cc3c(SCC(=O)Nc4cc(C(F)(F)F)ccc4Cl)nccn3n2)cc1`: the GI50 is 10.1 µM in test [1]; 81.6 µM in test [3]; 23.6 µM in [5]; > 100 µM in test [6]; 8.5 µM in test [7]; > 100 µM in test [8]. Also, the GI50 in test [9] and in test [10] was > 100 µM in each case. Moreover, the TGI was 87.2 µM in test [1]; > 100 µM in test [3]; > 100 µM in [5]; > 100 µM in [6]; > 100 µM in [7]; > 100 µM in test [8]. In addition, the TGI in [9] and in test [10] was > 100 µM each time.
As for `CCN(CC)CCOc1ccccc1/C=C/c1noc2ccccc12`, the TGI in test [1] was 26.7 µM; in [2], 15.3 µM; in test [3], 25.3 µM; in test [4], 16 µM; in test [5], 32.4 µM; in test [6], 21.1 µM. Moreover, the TGI in test [7] was 31.8 µM; in test [8] it was 22.4 µM; in test [9], 31.3 µM.
Turning to `NNC(=O)CNC(=O)c1ccc(Cl)cc1Cl`, the TGI in test [1], in [2], in test [3], in [4], in test [6] and in [7] was > 100 µM each time. In addition, the TGI in test [8], in [9] and in [10] was > 100 µM in each case.
For `COC(=O)C(CC(C)C)NC(=O)NC12CC3CC(CC(F)(C3)C1)C2` (stereo unspecified), the TGI in test [1], in test [2], in [3], in [4], in [6] and in [7] was > 100 µM each time. Besides, the TGI in [8], in [9] and in test [10] was > 100 µM in each case.
Turning to `COc1ccc(C(=O)c2cc(OC)c(OC)c(OC)c2)cc1/C=C/C(=O)c1ccc(OC)c(OC)c1`, the GI50 in test [1] is 4.71 µM; in [2], 3.19 µM; in [3], 2.43 µM; in [5], 2.76 µM; in test [6], 4.59 µM; in [7], 3.08 µM. Besides, the GI50 in test [10] is 0.587 µM. In addition, the TGI in test [1], in test [2], in test [3], in test [5], in test [6] and in [7] was > 100 µM in each case. In [10], this compound returned a TGI of 11.8 µM.
On to `O=C(/C(=C\c1ccc([N+](=O)[O-])cc1)S(=O)Cc1ccc(F)cc1)c1ccc(F)cc1` (stereo unspecified), for which the GI50 is 1.74 µM in test [1]; 1.79 µM in test [2]; 2.13 µM in [3]; 2.08 µM in test [5]; 1.8 µM in [6]; 1.69 µM in test [7]. Moreover, the GI50 in test [8] is 1.71 µM; in test [9] it was 6.19 µM; in test [10], 1.3 µM. Moreover, the TGI in test [1] came to 3.92 µM; in [2] it was 3.73 µM; in test [3], 4.7 µM; in [5], 6.57 µM; in [6], 3.66 µM; in [7], 3.37 µM. Moreover, the TGI in test [8] is 3.25 µM; in test [9] it was 18.6 µM; in test [10], 4.28 µM.
As for `CCCCCCCCCCCCCC(=O)OCC1OC(n2cc(F)c(=O)[nH]c2=O)C(NC(=O)OCc2ccccc2)C(OC(=O)CCCCCCCCCCCCC)C1O` (stereo unspecified), the TGI in [1], in test [2], in test [3], in [4], in test [6] and in test [7] was > 100 µM throughout. Besides, the TGI in test [8], in test [9] and in test [10] was > 100 µM throughout.
For the compound `CC[P+](C)(C)c1ccccc1`, the TGI in [1], in test [2], in test [3], in test [4], in test [6] and in [7] was > 100 µM throughout. Besides, the TGI in test [8], in test [9] and in [10] was > 100 µM throughout.
Take `CNC(=O)OCc1c2ccncc2c(C)c2c1[nH]c1ccccc12`: the TGI was determined as 14.2 µM in test [1]; 2.05 µM in [2]; 1.81 µM in test [3]; 1.59 µM in [4]; 9.61 µM in test [5]; 2.25 µM in [6]. Moreover, the TGI in [7] turned out to be 0.784 µM; in test [8], 0.869 µM; in test [9], 0.673 µM.
As for `CC1=NOC(=O)/C1=C/c1cccc2ccccc12`, the TGI in test [1], in test [2], in test [3], in [4], in test [6] and in test [7] was > 100 µM throughout. Also, the TGI in test [8], in [9] and in test [10] was > 100 µM in each case.
Consider `Cc1ccc2ncnc(N(CC(C)C)CC(C)C)c2c1`, for which the GI50 in test [1] is 18.5 µM; in test [3], 14.5 µM; in test [5], 20.4 µM; in test [6] it was 19.9 µM; in test [8] it was 14.5 µM; in test [9], 13.5 µM. Moreover, the GI50 in test [10] is 1.61 µM. Further, the TGI in test [1] came to 40 µM; in test [3] it was 49 µM; in [5], 89.3 µM; in [6], 42.6 µM; in [8] it was 32.1 µM; in test [9], 28.2 µM. Also, the TGI in test [10] was 5.13 µM.
